The test system of series [1] is morula stage mouse embryos. Nature of the series: qPCR for 2C-embryo specific genes in APH-treated morula-stage mouse embryos. It is filed as cell-based. On the procedure:
(§1) RNA was extracted using RNeasy mini kit (QIAGEN), quantified by NanoDrop spectrophotometer and cDNA was prepared from 2 μg total DNA-depleted RNA using SuperScript™ III reverse transcriptase kit (Invitrogen cat #18080-093) following manufacturer's instructions. qPCR assay performed based on standard protocol using 10× SsoFast™ EvaGreen® Supermix or later 1× LightCycler 480 SYBR Green I Master (Roche, 04707516001), 0.5 μM primer mix and 5 ng of cDNA. GAPDH was used as internal control to normalise the qPCR data following ΔΔCt method, 10 μM primer mix and a total amount of cDNA corresponding to 5 ng of starting RNA for each reaction.
Cryopreserved C57BL/6N morulae purchased from Janvier Labs (QUICKBLASTO®), were thawed according to the manufacturer's protocol. After recovery, a group of healthy morulae were treated with APH at final concentration of 1.5 μM in KSOM culture medium for 4 hrs while the rest were kept as control. The day after, the same number of morphologically healthy and synchronized blastocysts (22 and 7 blastocysts in the 1st and 2nd round, respectively) were selected from both groups. […] As the quantity of isolated RNA is not detectable by NanoDrop spectrophotometer, the supernatant was directly used for cDNA preparation following centrifugation at 10621 g for 2 minutes. cDNA preparation and qPCR were performed following the aforementioned protocols. […]

Series [2] concerns 2C-like genes (Zscan4, MuERV-L/MERVL, Dux) in ESCs (E14, R1). The series can be described thus: qPCR for 2C-like specific genes in ESCs. It is filed as cell-based, mouse. On the procedure:
All treatments including APH, HU, UV, ATRi, ATMi and Chk1i were added in to fresh ESC medium and the cells were kept in 37° C. and 3% 02 tension for overnight (16-17 hrs) unless mentioned in each particular result section. APH was used at various concentrations ranging from 0.3 uM to 6 uM that is mentioned in each experiment in order to induce mild to acute replication stress response. Similarly, HU was used at 0.1 mM-3 mM. ATMi (KU-55933) and ATRi (VE 822) were used at the concentration of 10 uM and 1 uM respectively. Moreover, Chk1i (UCN-01) at the concentration of 100 nM was used. UV radiation was performed at the dosage ranging from 2 to 10 J/m2. For induction of ETAA1-AAD expression, Dox was used at the concentration of 1 μg/mL for 48 hrs.
as §1

The subject of series [3] is mouse embryonic fibroblast (MEF) lines. The series can be described thus: qPCR for 2C-specific markers in MEF lines. It counts as cell-based. The conditions noted are these: two MEF lines with distinct genetic backgrounds. On the procedure:
ESCs were grown in feeder free culture condition either with or without 0.1% gelatin coat and incubated in 37° C. and 3% 02 tension. ESC medium (high glucose DMEM (DMEM Media—GlutaMAX™-I, Gibco)), 15% ESC qualified FBS (HyClone™ Fetal Bovine Serum), 2 mM L-glutamine, 1/500 home-made leukemia inhibitory factor, 0.1 mM non-essential amino acids, 0.1 mM 2-bmercaptoethanol, 50 units/ml penicillin, […] streptomycin, 1 mM Sodium Pyruvate) supplemented with two inhibitors (2i from Axon medchem) that are PD 0325901; highly specific non-ATP-competitive inhibitor of MEK (aka MKK) 1/2 at final concentration of 1 uM and CHIR 99021; specific glycogen synthase kinase GSK-3 inhibitor at final concentration of 3 uM. MEF cells were cultured in MEF medium (high glucose DMEM (Lonza), 10% north America FBS, 2 mM L-glutamine, 0.1 mM non-essential amino acids, 50 units/ml penicillin, 1 mM Sodium Pyruvate and […] streptomycin).
RNA was extracted using RNeasy mini kit (QIAGEN), quantified by NanoDrop spectrophotometer and cDNA was prepared from 2 μg total DNA-depleted RNA using SuperScript™ III reverse transcriptase kit (Invitrogen cat #18080-093) following manufacturer's instructions. qPCR assay performed based on standard protocol using […] SsoFast™ EvaGreen® Supermix or later 1× LightCycler 480 SYBR Green I Master (Roche, 04707516001), 0.5 μM primer mix and 5 ng of cDNA. […]

Series [4] has as its system pZscan4-Emerald ESCs. Nature of the series: FACS for Emerald-GFP and CASPASE-3 (apoptosis). It counts as cell-based, mouse. The conditions noted are these: mostly at high concentration. From the text: (§2) ESCs were fixed and permeabilized using Cytoperm/Cytofix kit (BD Biosciences), and subsequently stained for one hour at room temperature with Alexa Fluor® 647 anti-H2AX-Phosphorylated (Ser139) antibody (Biolegend) or P-CHK1-PE conjugated antibody (cell signaling 12268). Cells were washed and acquired on a FACS Calibur instrument or Attune NxT (Thermo Fisher Scientific). For Emerald-GFP acquisition, cells were trypsinized, collected and subsequently acquired without fixation. Cell cycle profiles were acquired after incubation with DAPI (4′,6-diamidino-2-phenylindole) overnight. For Caspase3 FACS analysis after fixation and permeabilization, Cleaved Caspase3 antibody were used for one hr at RT followed by washes and one hr incubation in donkey anti rabbit secondary antibody. […]

For series [5], the system named is pZscan4-Emerald ESCs. Nature of the series: Cell cycle analysis of ESCs. The conditions noted are these: APH 0.3 μM and 6 μM. It counts as cell-based, mouse.
Text: as §2

The results in this text go back to patent US20200131473A1, “METHOD OF GENERATING 2 CELL-LIKE STEM CELLS” (IFOM FONDAZIONE ISTITUTO FIRC DI ONCOLOGIA MOLECOLARE, priority 2017, published 2020).

Entries after “also recorded” stand apart in the source; their conditions may differ.

As for `C[C@@]1(CO)[C@H](O)CC[C@@]2(C)[C@H]1CC[C@H]1C[C@@H]3C[C@@]12CC[C@]3(O)CO` [APH, aphidicolin], the “expression of 2C embryo specific markers Dux, MERVL and Gm4981 (qPCR)” value in series [1] (morula-stage embryos treated with APH, blastocyst stage) is reported as “activated the expression of several key 2C embryo specific markers”. Also, the “expression of 2C-embryo-specific genes Zscan4, Tcstv3, GM12794 and Eif1a (qPCR)” value in series [1] (morula-stage embryos, APH 1.5 μM for 4 hrs, blastocysts analysed the day after) is “activate several key 2C-embryo-specific genes”. In series [2] (APH treatment), the “expression of key 2C-like genes in DUX KO ESCs” value is listed as “could not induce” and the “main 2C-like genes, qPCR validation of profiling” value is “significant upregulation”. Also, the “expression of 2C-like genes in ATR Seckel ESCs” value in series [2] (APH treatment, unlike normal wild type ESC) is given as “milder increase; also recorded: mild increase”. The “expression of Zscan4 and MuERV-L (QPCR and FACS)” value in series [2] (ESC lines E14 and R1, time and dosage-dependent) is “significantly upregulated”. In series [3], the “expression of main 2C-specific markers such as MuERV-L in MEF lines” value was “do not alter”. In addition, in series [4], the “cell apoptosis (CASPASE-3)” value was “mild cell apoptosis”. For the same molecule, the “G2/M population in culture” value in series [5] is given as “neither at low (0.3 μM) nor at high (6 μM) concentrations could increase G2/M population”.
